According to US11530195B1, “Protacs targeting coronavirus 3CL protease and preparation method and application thereof” (SHAANXI PANLONG PHARMACEUTICAL CO., LTD., priority 2022, dated 2022):
Where two headings read alike, the source gives them in different places.

Tests used:
SARS-CoV-2 3CL^pro [1] = target: T1, SARS-CoV-2 3CL^pro (Severe acute respiratory syndrome coronavirus 2 (2019-nCoV) (SARS-CoV-2), UniProt P0DTD1); experiment: 3CL^pro inhibitory activity test (fluorescence resonance energy transfer); assay type: biochemical
SARS-CoV-2 3CL^pro [2] = target: T1, SARS-CoV-2 3CL^pro; assay type: cell-based; conditions: Western Blot
[3] = HEK293E cells transfected with 3CL^pro plasmid, 24 h treatment, read-out: DC50
[4] = FRET, substrate Dabcyl-KTSAVLQSGFRKME-Edans 20 μM, enzyme 0.5 μM, read-out: IC50
[5] = HEK293E cells, 24 h, read-out: DC50 values

Row | Compound | IC50 (SARS-CoV-2 3CL^pro [1]) | DC50 (SARS-CoV-2 3CL^pro [2]; [3]) | IC50 (SARS-CoV-2 3CL^pro [1]; [4]) | IC50 (SARS-CoV-2 3CL^pro [1]; FRET, read-out: IC50 values) | DC50 (SARS-CoV-2 3CL^pro [2]; [5])
1 | Cn1cc2cc(/N=c3\[nH]c(=O)n(Cc4cn(CCC(=O)Nc5cccc6c5C(=O)N(C5CCC(=O)NC5=O)C6=O)nn4)c(=O)n3Cc3cc(F)c(F)cc3F)c(Cl)cc2n1 (stereo not shown) [Compound 7, (E)-3-(4-((4-((6-chloro-2-methyl-2H-indazol-5-yl)imino)-2,6-dioxy-3-(2,4,5-Trifluorobenzyl)-1,3,5-triazin-1-yl)methyl)-1H-1,2,3-triazol-1-yl)-N-(2-Preparation of (2,6-dioxopiperidin-3-yl)-1,3-dioxoisoindolin-4-yl)propionamide] | 100 to 1000 nM | 100 to 1000 nM | – | – | –
2 | (E)-5-(4-((4-((6-chloro-2-methyl-2H-indazol-5-yl)imino)-2,6-dioxy-3-(2,4,5-Trifluorobenzyl)-1,3,5-triazin-1-yl)methyl)-1H-1,2,3-triazol-1-yl)-N-(2-Preparation of (2,6-dioxopiperidin-3-yl)-1,3-dioxoisoindolin-4-yl)pentanamide [Compound 9] | – | < 100 nM | < 100 nM | < 100 nM | < 100 nM
3 | Cn1cc2cc(/N=c3\[nH]c(=O)n(Cc4cn(CCOCC(=O)Nc5cccc6c5CN(C5CCC(=O)NC5=O)C6=O)nn4)c(=O)n3Cc3cc(F)c(F)cc3F)c(Cl)cc2n1 (stereo not shown) [Compound 13, (E)-2-(2-(4-((4-((6-chloro-2-methyl-2H-indazol-5-yl)imino)-2,6-dioxy-3-(2,4,5-Trifluorobenzyl)-1,3,5-triazin-1-yl)methyl)-1H-1,2,3-triazol-1-yl)ethoxyyl)-N-(2-(2,6-dioxopiperidin-3-yl)-1-oxoisoquinolin-4-yl)acetamide] | 100 to 1000 nM | < 100 nM | – | – | < 100 nM
4 | Cn1cc2cc(/N=c3\[nH]c(=O)n(Cc4cn(CCCCCC(=O)Nc5cccc6c5CN(C5CCC(=O)NC5=O)C6=O)nn4)c(=O)n3Cc3cc(F)c(F)cc3F)c(Cl)cc2n1 (stereo not shown) [Compound 4, (E)-6-(4-((4-((6-chloro-2-methyl-2H-indazol-5-yl)imino)-2,6-dioxy-3-(2,4,5-Trifluorobenzyl)-1,3,5-triazin-1-yl)methyl)-1H-1,2,3-triazol-1-yl)-N-(2-Preparation of (2,6-Dioxypiperidin-3-yl)-1-oxoisoquinolin-4-yl)hexanamide] | – | < 100 nM | < 100 nM | < 100 nM | < 100 nM
5 | Cn1cc2cc(/N=c3\[nH]c(=O)n(Cc4cn(CCC(=O)Nc5cccc6c5CN(C5CCC(=O)NC5=O)C6=O)nn4)c(=O)n3Cc3cc(F)c(F)cc3F)c(Cl)cc2n1 (stereo not shown) [Compound 1] | 100 to 1000 nM | 100 to 1000 nM | – | – | –
6 | Cn1cc2cc(/N=c3\[nH]c(=O)n(Cc4cn(CCOCCOCCOCC(=O)Nc5cccc6c5CN(C5CCC(=O)NC5=O)C6=O)nn4)c(=O)n3Cc3cc(F)c(F)cc3F)c(Cl)cc2n1 (stereo not shown) [Compound 15, (E)-2-(2-(2-(2-(4-((4-((6-chloro-2-methyl-2H-indazol-5-yl)imino)-2,6-Dioxy-3-(2,4,5-trifluorobenzyl)-1,3,5-triazin-1-yl)methyl)-1H-1,2,3-triazole-1-yl)ethoxy)ethoxy)ethoxy)-N-(2-(2,6-dioxopiperidin-3-yl)-1-oxoisoindolin-4-yl)ethyl Preparation of amides] | 100 to 1000 nM | < 100 nM | – | – | < 100 nM
7 | Cn1cc2cc(/N=c3\[nH]c(=O)n(Cc4cn(CCOCCOCC(=O)Nc5cccc6c5CN(C5CCC(=O)NC5=O)C6=O)nn4)c(=O)n3Cc3cc(F)c(F)cc3F)c(Cl)cc2n1 (stereo not shown) [Compound 14, (E)-2-(2-(2-(4-((4-((6-chloro-2-methyl-2H-indazol-5-yl)imino)-2,6-Dioxy-3-(2,4,5-trifluorobenzyl)-1,3,5-triazin-1-yl)methyl)-1H-1,2,3-triazol-1-yl)ethoxy)ethoxy)-N-(2-(2,6-dioxopiperidin-3-yl)-1-oxoisoindolin-4-yl)acetamide] | – | < 100 nM | – | – | < 100 nM
8 | (E)-2-(2-(4-((4-((6-chloro-2-methyl-2H-indazol-5-yl)imino)-2,6-dioxy-3-(2,4,5-Trifluorobenzyl)-1,3,5-triazin-1-yl)methyl)-1H-1,2,3-triazol-1-yl)ethoxy yl)-N-(2-(2,6-dioxopiperidin-3-yl)-1,3-dioxoisoindolin-4-yl)acetamide [Compound 16] | – | < 100 nM | 100 to 1000 nM | – | < 100 nM
9 | (E)-8-(4-((4-((6-Chloro-2-methyl-2H-indazol-5-yl)imino)-2,6-dioxy-3-(2,4,5-Trifluorobenzyl)-1,3,5-triazin-1-yl)methyl)-1H-1,2,3-triazol-1-yl)-N-(2-Preparation of (2,6-dioxopiperidin-3-yl)-1,3-dioxoisoindolin-4-yl)octamide [Compound 12] | – | 100 to 1000 nM | 100 to 1000 nM | – | –
10 | Cn1cc2cc(/N=c3\[nH]c(=O)n(Cc4cn(CCOCCOCC(=O)Nc5cccc6c5C(=O)N(C5CCC(=O)NC5=O)C6=O)nn4)c(=O)n3Cc3cc(F)c(F)cc3F)c(Cl)cc2n1 (stereo not shown) [Compound 17] | – | < 100 nM | – | – | < 100 nM
11 | (E)-7-(4-((4-((6-chloro-2-methyl-2H-indazol-5-yl)imino)-2,6-dioxy-3-(2,4,5-Trifluorobenzyl)-1,3,5-triazin-1-yl)methyl)-1H-1,2,3-triazol-1-yl)-N-(2-Preparation of (2,6-Dioxypiperidin-3-yl)-1-oxoisoquinolin-4-yl)heptamide [Compound 5] | – | < 100 nM | 100 to 1000 nM | – | < 100 nM
12 | (E)-4-(4-((4-((6-chloro-2-methyl-2H-indazol-5-yl)imino)-2,6-dioxy-3-(2,4,5-Trifluorobenzyl)-1,3,5-triazin-1-yl)methyl)-1H-1,2,3-triazol-1-yl)-N-(2-Preparation of (2,6-dioxopiperidin-3-yl)-1,3-dioxoisoindolin-4-yl)butanamide [Compound 8] | – | < 100 nM | < 100 nM | < 100 nM | < 100 nM
13 | (E)-6-(4-((4-((6-chloro-2-methyl-2H-indazol-5-yl)imino)-2,6-dioxy-3-(2,4,5-Trifluorobenzyl)-1,3,5-triazin-1-yl)methyl)-1H-1,2,3-triazol-1-yl)-N-(2-Preparation of (2,6-dioxopiperidin-3-yl)-1,3-dioxoisoindolin-4-yl)hexanamide [Compound 10] | – | < 100 nM | < 100 nM | < 100 nM | < 100 nM
14 | (E)-7-(4-((4-((6-chloro-2-methyl-2H-indazol-5-yl)imino)-2,6-dioxy-3-(2,4,5-Trifluorobenzyl)-1,3,5-triazin-1-yl)methyl)-1H-1,2,3-triazol-1-yl)-N-(2-Preparation of (2,6-dioxopiperidin-3-yl)-1,3-dioxoisoindolin-4-yl)heptamide [Compound 11] | – | 100 to 1000 nM | 100 to 1000 nM | – | –
